Measurements published in publication PMC11181478, “SARS-CoV-2 Main Protease Inhibitors That Leverage Unique Interactions with the Solvent Exposed S3 Site of the Enzyme” (ACS Medicinal Chemistry Letters, 2024).
pEC50, pIC50: −log10 of the molar value. Where two headings read alike, the source gives them in different places.

Tests used:
SARS-CoV-2 M^Pro [1] = molecular target: T1, SARS-CoV-2 M^Pro (Severe acute respiratory syndrome coronavirus 2, UniProt P0DTD1); conditions: read-out: IC50 against M^Pro; previously published inhibitors; cited from earlier work
[2] = molecular target: M^Pro-eGFP fusion protein transiently expressed in 293T cells (Severe acute respiratory syndrome coronavirus 2, UniProt P0DTD1); type: cell-based, SARS-CoV-2; conditions: read-out: Cellular EC50
SARS-CoV-2 M^Pro [3] = molecular target: T1, SARS-CoV-2 M^Pro; experiment: In vitro M^Pro inhibition potency (enzymatic IC50, fluorogenic substrate Sub3); type: biochemical; conditions: 20 nM M^Pro, 10 μM Sub3, 30 min preincubation, pH 7.6

Row | SMILES | pIC50 (SARS-CoV-2 M^Pro [1]) | pEC50 [2] | pIC50 (SARS-CoV-2 M^Pro [3])
1 | CC(C)(C)C[C@H](NC(=O)OCc1ccccc1)C(=O)N[C@H](C=O)C[C@@H]1CCNC1=O [MPI50] | 7.28 |  | 
2 | CC1(C)[C@@H]2[C@@H](C(=O)N[C@H](C=O)C[C@@H]3CCNC3=O)N(C(=O)OC(c3ccccc3)c3ccccc3)C[C@@H]21 [MPI94] |  | 6.05 | 
3 | CC1(C)[C@@H]2[C@@H](C(=O)N[C@H](C=O)C[C@@H]3CCNC3=O)N(C(=O)OC(c3ccc(F)cc3)c3ccc(F)cc3)C[C@@H]21 [MPI95] |  | 6.04 | 
4 | CC1(C)[C@@H]2[C@@H](C(=O)N[C@H](C=O)C[C@@H]3CCNC3=O)N(C(=O)C(c3ccc(Cl)cc3)c3ccc(Cl)cc3)C[C@@H]21 [MPI96] |  | 5.54 | 
5 | CC1(C)[C@@H]2[C@@H](C(=O)N[C@H](C=O)C[C@@H]3CCNC3=O)N(C(=O)N(c3ccc(Cl)cc3)c3ccc(Cl)cc3)C[C@@H]21 [MPI97] |  | 5.96 | 
6 | CC1(C)[C@@H]2[C@@H](C(=O)N[C@H](C=O)C[C@@H]3CCNC3=O)N(C(=O)C(Oc3ccc(Cl)cc3)Oc3ccc(Cl)cc3)C[C@@H]21 [MPI98] |  | 6.31 | 
7 | CC1(C)[C@@H]2[C@@H](C(=O)N[C@H](C=O)C[C@@H]3CCNC3=O)N(C(=O)[C@H](Cc3ccccc3)NC(=O)OCc3ccccc3)C[C@@H]21 [MPI99] |  | < 5.30 | 6.57
8 | CC1(C)[C@@H]2[C@@H](C(=O)N[C@H](C=O)C[C@@H]3CCNC3=O)N(C(=O)[C@H](CC3CCCCC3)NC(=O)OCc3ccccc3)C[C@@H]21 [MPI100] |  | 6.85 | 
9 | CC(C)(C)C[C@H](NC(=O)OCc1cccnc1)C(=O)N[C@H](C=O)C[C@@H]1CCNC1=O [MPI101] |  | < 5.30 | 7.70
10 | CC1(C)[C@@H]2[C@@H](C(=O)N[C@H](C=O)C[C@@H]3CCNC3=O)N(C(=O)OCc3cccnc3)C[C@@H]21 [MPI102] |  | < 5.30 | 7.55
11 | CC1(C)[C@@H]2[C@@H](C(=O)N[C@H](C#N)C[C@@H]3CCNC3=O)N(C(=O)OCc3cccnc3)C[C@@H]21 [MPI103] |  | < 5.30 | 7.55
12 | CC(C)(C)C[C@H](NC(=O)[C@@H]1CC[C@@H]1c1ccccc1)C(=O)N[C@H](C=O)C[C@@H]1CCNC1=O [MPI104] |  | < 5.30 | 7.10
13 | CC(C)(C)C[C@H](NC(=O)N1CC[C@@H]1c1ccccc1)C(=O)N[C@H](C=O)C[C@@H]1CCNC1=O [MPI105] |  | < 5.30 | 7.41
14 | CC1(C)[C@@H]2[C@@H](C(=O)N[C@H](C#N)C[C@@H]3CCNC3=O)N(C(=O)[C@@H](NC(=O)C(F)(F)F)c3ccc(Cl)cc3)C[C@@H]21 [MPI106] |  | < 5.30 | 
15 | CC1(C)[C@@H]2[C@@H](C(=O)N[C@H](C#N)C[C@@H]3CCNC3=O)N(C(=O)[C@@H](NC(=O)C(F)(F)F)c3ccc(Cl)c(Cl)c3)C[C@@H]21 [MPI108] |  | < 5.30 | 
